Article PMC11003683, “Pyrrole-based inhibitors of RND-type efflux pumps reverse antibiotic resistance and display anti-virulence potential” (PLOS Pathogens, 2024)
In brackets after ≈: the same amount, converted by molar mass. Where two headings read alike, the source gives them in different places.

How the values were obtained:
in vitro [1] = assay: in vitro; design: species or system H-PBMC; MTT viability assay, absorbance at 570 nm, cytotoxicity IC50; conditions: human, pbmc; read-out: IC50
Procedure: (§1) The cytotoxicity assay was performed on Human Peripheral Blood Mononuclear cells (H-PBMC, Himedia, India) according to the manufacturer’s instructions. The H-PBMC (40,000 cells/well in 100 μL volume) suspension in RPMI-1640 media (containing 10% fetal bovine serum and 50 U/mL antibiotic-antimycotic solution) (Himedia^, India) was dispensed into 96-well polystyrene tissue culture-treated flat-bottom plates (Corning, U.S.). The plates were incubated for 48 h in a CO2 (5%) incubator at 37°C. After 48 h, the compounds (Ar1-Ar24) were added to the plates in a fresh medium and again incubated for 24 h in a CO2 (5%) incubator at 37°C. Next, MTT (1 mg/mL) was added to the wells, followed by incubation for 4–5 h. The formazan crystals were solubilized using a solubilizing solution (40% (v/v) dimethyl formamide in 2% (v/v) glacial acetic acid added with 16% sodium dodecyl sulfate), and the absorbance (OD570nm) was measured. Considering the lack of effect of EPIs on eukaryotic Ca^2+ ion channels, we further evaluated cytotoxicity on Human Peripheral Blood Mononuclear cells (H-PBMC). […] Our front runners, Ar1, Ar5, and Ar11, had extremely low toxicity toward H-PBMCs. […] Taken together, these experiments provide substantial evidence that Ar5 is non-toxic in vitro and can be used for therapeutic applications in vivo.

in vitro [2] = assay: in vitro; design: MTT viability assay on human PBMCs, absorbance at 570 nm; conditions: human, pbmc; 24 h exposure, MTT; read-out: IC50
Procedure: as §1

[3] = test system: T1, Escherichia coli ATCC BAA-2774; assay: microbe, parasite or virus in culture; design: MIC of antibiotic alone from antibiotic potentiation assay against XDR strain; conditions: ATCC BAA-2774 / ATCC BAA-2782, read-out: MIC (μg/mL) / Klebsiella pneumoniae ATCC BAA-2782 / Escherichia coli ATCC BAA-2774
T1 construct: ATCC BAA-2774
Description: (§2) We further tested the potentiation of Ar1, Ar5, Ar11, and Ar18 to RND efflux pump substrates (ciprofloxacin, levofloxacin, tetracycline, tigecycline, erythromycin, piperacillin, and chloramphenicol) against XDR E. coli ATCC BAA-2774 (expressing AcrAB-TolC), K. pneumoniae ATCC BAA-2782 (expressing AcrAB-TolC), and P. aeruginosa ATCC BAA-2795 (expressing MexAB-OprM). […] The fact that compounds potentiate a given antibiotic against efflux pump over-expressed strain but not deletion provides substantial evidence that the inhibition effect is RND efflux pump specific targeting AcrAB and MexAB efflux systems. The antibiotics, chemicals, and dyes were purchased from Sigma-Aldrich Chemical Co. (St. Louis, MO, United States) unless stated otherwise. The E. coli wild-type K-12 AG100 (argE3 thi-1 rpsLxylmtlΔ(gal-uvrB)supE44) and its derivatives, AcrB over-expressing AG100tet and AcrAB knockout AG100A (ΔacrAB::Tn903 Kan^r) were used in the study. AG100tet is derived from AG100 by gradual stepwise exposure to increased concentrations of tetracycline and was grown in the presence of 8 μg/mL tetracycline to maintain efflux pump over-expression. AG100A was grown in the presence of 100 μg/mL kanamycin to preserve the transposon. The P. aeruginosa ATCC BAA-2795 over-expressing MexAB-OprM (Chromachemie, India), and PAO750 (PAO1: ΔmexAB-oprM, ΔmexCD-oprJ, ΔmexEF-oprN, ΔmexXY) were also used in the study. The strains P. aeruginosa ATCC 27853, P. aeruginosa ATCC 15692 (PAO1), K. Pneumoniae ATCC BAA-2782, K. Pneumoniae ATCC 700603, and E. coli ATCC BAA-2774, were purchased from Himedia, India. All the strains were grown in BBL Cation-adjusted Mueller Hinton Broth (CA-MHB; BD, U.S.) at 37°C under standard conditions. Mueller Hinton Agar (MHA; Himedia, India) plates were used for bacterial viability counting.

[4] = test system: T2, Pseudomonas aeruginosa ATCC BAA-2795; assay: microbe, parasite or virus in culture; design: MIC of antibiotic alone from antibiotic potentiation assay against XDR strain; conditions: ATCC BAA-2782 / ATCC BAA-2795, read-out: MIC (μg/mL) / Klebsiella pneumoniae ATCC BAA-2782 / Pseudomonas aeruginosa ATCC BAA-2795
T2 construct: ATCC BAA-2795
Description: as §2

[5] = test system: T3, Klebsiella pneumoniae ATCC BAA-2782; assay: microbe, parasite or virus in culture; design: MIC of antibiotic alone from antibiotic potentiation assay against XDR strain; conditions: ATCCBAA2782, read-out: MIC (μg/mL) / Klebsiella pneumoniae ATCC BAA-2782
T3 construct: ATCC BAA-2782
Description: as §2

Row | SMILES | CC50 at 24 h (in vitro [1]) [µg/mL] | CC50 at 24 h (in vitro [2]) [µg/mL] | MIC [3] [µg/mL] | MIC [4] [µg/mL] | MIC [5] [µg/mL]
1 | COC(=O)c1cc(-c2ccc(F)cc2)cn1Cc1ccc(F)cc1 [Ar1] | 256 (≈ 782 µM) | 256 (≈ 782 µM) | – | – | –
2 | COC(=O)c1cc(-c2cccc(NC(C)=O)c2)cn1Cc1ccc(C)cc1 [Ar11] | > 256 | > 256 | – | – | –
3 | CCOC(=O)c1cc(-c2ccc(C(F)(F)F)cc2)cn1Cc1ccc(F)cc1 [Ar16] | 256 (≈ 654 µM) | 256 (≈ 654 µM) | – | – | –
4 | CCOC(=O)c1cc(-c2ccc(F)cc2)c[nH]1 [Ar17] | 256 (≈ 1100 µM) | 256 (≈ 1100 µM) | – | – | –
5 | CCOC(=O)c1cc(-c2ccc(F)cc2F)cn1Cc1ccc(F)cc1 [Ar18] | > 128 | > 128 | – | – | –
6 | CCOC(=O)c1cc(-c2ccc(F)cn2)cn1Cc1ccc(F)cc1 [Ar19] | > 128 | > 128 | – | – | –
7 | CCOC(=O)c1cc(-c2cccc(CO)c2)cn1Cc1ccc(F)cc1 [Ar20] | > 128 | > 128 | – | – | –
8 | CCOC(=O)c1cc(-c2ccc(C#N)cc2)cn1Cc1ccc(F)cc1 [Ar21] | 256 (≈ 735 µM) | 256 (≈ 735 µM) | – | – | –
9 | CCOC(=O)c1cc(-c2ccc(C(F)(F)F)cc2)cn1Cc1ccc(C)cc1 [Ar24] | 256 (≈ 661 µM) | 256 (≈ 661 µM) | – | – | –
10 | O=C(N[C@H](CO)[C@H](O)c1ccc([N+](=O)[O-])cc1)C(Cl)Cl [Chloramphenicol] | – | – | 32 | 256 | 16
11 | O=C(O)c1cn(C2CC2)c2cc(N3CCNCC3)c(F)cc2c1=O [Ciprofloxacin] | – | – | 256 | 256 | 128
12 | CC[C@H]1OC(=O)[C@H](C)[C@@H](O[C@H]2C[C@@](C)(OC)[C@@H](O)[C@H](C)O2)[C@H](C)[C@@H](O[C@@H]2O[C@H](C)C[C@H](N(C)C)[C@H]2O)[C@](C)(O)C[C@@H](C)C(=O)[C@H](C)[C@@H](O)[C@]1(C)O [Erythromycin] | – | – | 512 | 512 | 128
13 | C[C@H]1COc2c(N3CCN(C)CC3)c(F)cc3c(=O)c(C(=O)O)cn1c23 [Levofloxacin] | – | – | 32 | 256 | 32
14 | CCN1CCN(C(=O)N[C@@H](C(=O)N[C@@H]2C(=O)N3[C@@H]2SC(C)(C)[C@@H]3C(=O)O)c2ccccc2)C(=O)C1=O [Piperacillin] | – | – | 512 | 256 | 1020
15 | CN(C)[C@@H]1C(O)=C(C(N)=O)C(=O)[C@@]2(O)C(O)=C3C(=O)c4c(O)cccc4[C@@](C)(O)[C@H]3C[C@@H]12 [Tetracycline] | – | – | 256 | 32 | 4
16 | CN(C)c1cc(NC(=O)CNC(C)(C)C)c(O)c2c1C[C@H]1C[C@H]3[C@H](N(C)C)C(O)=C(C(N)=O)C(=O)[C@@]3(O)C(O)=C1C2=O [Tigecycline] | – | – | 128 | 256 | 64
